Test results from patent US20100112012A1, “MODULATION OF IMMUNE RESPONSES” (CLEVELAND CLINIC FOUNDATION, priority 2005, published 2010).
Entries after “also recorded” stand apart in the source; their conditions may differ.

Tests used:
[1] = tested on: contact hypersensitivity (CHS) response; test: Hapten sensitization and elicitation of contact hypersensitivity; format: in vivo, BALB/c mice; details: 24 hours after challenge
Method: For sensitization to DNFB, mice were painted on days 0 and +1 with 25 ml of 0.25% 2,4-dinitrofluorobenzene (DNFB) (Sigma Chemical, Co.) on the shaved abdomen and 5 ml on each footpad. On day +5 sensitized and, as a negative control, unsensitized mice were challenged with 10 ml of 0.2% DNFB on both sides of each ear. Ear thickness was measured in a blinded manner at 24 h intervals after challenge using an engineer's micrometer (Mitutoyo, Elk Grove Village, Ill.) and expressed in units of 10^−4 inches. The magnitude of ear swelling responses is presented in FIG. 12 as the mean increase of each group of 4 sensitized or non-sensitized mice (i.e. […]) ±SEM over the thickness measured just prior to hapten challenge on day +5 post-sensitization. […] Control mice received injections with an equal volume of PBS.

[2] = tested on: antigen-presenting dendritic cells; test: Flow cytometry of CD11c+/FITC+ dendritic cells in skin draining lymph nodes; format: in vivo, BALB/c mice; details: day +2
Method: LNC were obtained from hapten-sensitized mice on day +2 post-sensitization. To prevent non-specific antibody binding cells were incubated with rat serum (Rockland, Gilbertsville, Pa.) diluted 1:1000 in staining buffer (Dulbecco's PBS with 2% FCS/0.02% NaN3) for 20 min on ice. Then cells were washed and stained with PE-labeled anti-CD11c mAb to detect DC. Stained cells were washed five times, resuspended in staining buffer and analyzed by two-color flow cytometry using a FACScan (Becton Dickinson, San Jose, Calif.).
To detect Langerhans cells in the lymph nodes LNC were obtained 48 h after sensitization with 1% FITC and were stained with PE-labeled anti-CD11c mAb and then analyzed by two-color flow cytometry.

p53 = test: Phosphorylation status of p53 (Western analysis); format: cell-based, human; details: RCC45 cells, 9AA 5 μM, 16 h
Method: Cells were lysed in RIPA buffer (25 mM Tris HCl, pH 7.2, 125 mM NaCl, 1% NP40, 1% sodium deoxycholate, 1 mM EDTA) containing 1 mM PMSF (Sigma), 10 ug/ml of aprotinin (Sigma) and 10 ug/ml of leupeptin (Sigma). Protein concentrations were determined with the BioRad Dc protein assay kit. Equal protein amounts were run on gradient 4-20% precast gels (Novex) and blotted onto PVDF membranes (Amersham). The following antibodies were used: anti-p53—monoclonal mouse DO1 (Santa-Cruz), anti-p21—monoclonal mouse F-5 (Santa-Cruz), anti-mdm2—monoclonal mouse SMP14 (Santa-Cruz), anti-p65—(C20, Santa Cruz), anti-phospho-p65—(ser536, Cell Signaling), anti-IκBa—(C21, Santa Cruz), anti-p50—(NLS, Santa Cruz), anti-IKK1 (Cell Signaling), anti-γH2X (Cell Signaling), anti-actin (Santa Cruz). p53 phosphorylation status was analyzed using the phospho-p53 sampler kit from Cell Signaling according to the manufacturer's recommendations. HRP-conjugated secondary antibodies were purchased from Santa Cruz. Quantitation of the data was performed using Quantity One software from BioRad.

[3] = tested on: proinflammatory cytokines in the skin; test: IL-1β, TNFα, CCL21 and IκBα expression in sensitized skin (RT-PCR, ELISA); format: in vivo, BALB/c mice; details: quinacrine on days −2 plus −1, 0.25% DNFB
Method: Naive and sensitized mouse skin (˜200 mg) was snap frozen in liquid nitrogen and then ground using a mortar and pestle in liquid nitrogen. Total RNA was extracted using the RNeasy Tissue Kit (Qiagen, Inc., Valencia, Calif.) according to the manufacturer's protocol. For synthesis of cDNA, 2 mg of total RNA from each sample was resuspended in 10 ml of the reaction buffer. cDNA synthesis was performed using M-MLV reverse transcriptase (Promega Corporation, Madison, Wis.) with random primers according to the manufacturer's protocol. The reaction was stopped by denaturing the enzyme at 99° C. for 5 min. and the mixture was diluted with distilled water to a final volume of 50 ml. Aliquots (3 ml) of the synthesized cDNA were added to 47 ml of PCR mixture, containing 1×PCR buffer, MgCl2 (1.5 mM), dNTP (0.2 mM each), primer mix (0.5 mM each) and 2.0 units of Taq DNA polymerase (all from Invitrogen Corp., Carlsbad, Calif.). PCR primers for mouse GAPDH, IκBα, TNF-α, IL-1β and CCL21 were purchased from Integrated DNA Technologies, Inc. (Coralville, Iowa) and contained the following sequences:
Amplification was initiated by 1 min of denaturation at 95° C. for 1 cycle. […] For each set of primers, dilutions of cDNA were amplified for 20-40 cycles to define optimal conditions for linearity and to permit semi-quantitative analysis of signal strength. […]

histone H2A.X = test: Immunofluorescent detection of phosphorylated histone H2A.X; format: cell-based, human; details: HT1080 cells, 10 μM
Description: All washings were done with blocking solution.

Compound: CCN(CC)CCCC(C)Nc1c2ccc(Cl)cc2nc2ccc(OC)cc12 (stereo not shown) [QC, quinacrine]
- CHS/ear swelling response ([1]; quinacrine 80 mg/kg i.p. on days −2 and −1 (just prior to DNFB sensitization)): inhibits the priming of antigen-specific T cells (FIG. 13) and the magnitude and duration of the allergic response elicited; also recorded: decreased the CHS/ear swelling response to near the level observed following challenge of non-immune, naïve mice
- CHS/ear swelling response ([1]; quinacrine on days 0 and +1 (during DNFB sensitization)): increased the magnitude and persistence of the antigen-specific T cell response; also recorded: increased the CHS response to the challenge
- numbers of antigen-presenting dendritic cells in the skin draining lymph nodes ([2]; quinacrine on days 0 and +1 (during 1% FITC sensitization)): increased numbers of antigen-presenting dendritic cells
- numbers of antigen-presenting dendritic cells in the skin draining lymph nodes ([2]; quinacrine on days −2 and −1 (prior to 1% FITC sensitization)): decreased numbers of antigen-presenting dendritic cells
- phosphorylation of p53 (p53): did not induce the phosphorylation of p53
- antigen-induced mRNA expression and protein production of proinflammatory cytokines in the skin [3]: decreases antigen-induced mRNA expression and protein production of proinflammatory cytokines in the skin
- phosphorylation of histone H2A.X (histone H2A.X): Neither 9AA nor QC induced phosphorylation of histone H2A.X
